Each structure is given as a SMILES string.

Type in all cases: in vivo
In experiment [1] the test system is Rhipicephalus microplus (strain Parkhurst, resistant against synthetic pyrethroids). Put plainly: Rhipicephalus microplus in-vitro contact test, larval cattle tick (BOOPMI Contact). The note with it: 5 μg/cm^2 (=500 g/ha), after 48 hours, read-out: activity (efficacy, larvae dead or moribund). An outline of the steps: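 Glass tubes coated with compound in acetone (900 ppm giving 5 μg/cm²), dried, then loaded with 20-50 pyrethroid-resistant Parkhurst larvae and held at 27 °C, 85% RH. After 48 h negative geotaxis is scored; efficacy in % dead or moribund larvae.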

Experiment [2] has as its system Ctenocephalides felis. Description: Ctenocephalides felis in-vitro contact test, adult cat flea. The note with it: 5 μg/cm^2 (=500 g/ha), after 48 hours, read-out: activity (efficacy, fleas dead or moribund). An outline of the steps: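 Acetone solutions coated onto inner walls of glass tubes; 900 ppm gives 5 μg/cm^2. After drying, 5-10 adult Ctenocephalides felis per tube held 48 h at room temperature. Fleas then placed on 45-50° C. plate for up to 5 min; those unable to climb away scored dead or moribund, efficacy as % dead/moribund.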

The subject of another experiment is Rhipicephalus sanguineus. Description: Rhipicephalus sanguineus in-vitro contact test, adult brown dog ticks (RHIPSA Contact). The note with it: 5 μg/cm^2 (=500 g/ha), after 48 hours, read-out: activity (efficacy, ticks dead or moribund). An outline of the steps: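 Acetone solution coated onto glass tube walls; 900 ppm gives 5 μg/cm^2. After drying, 5-10 adult ticks per tube kept at room temperature for 48 h, then placed on a 45-50° C heating plate up to 5 min; ticks unable to climb away counted dead or moribund, efficacy as % affected.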

The subject of another experiment is Diabrotica balteata. Description: Diabrotica balteata spray test. The note with it: 168 h, wheat seeds, after 7 days, read-out: activity (efficacy, seedlings grown). An outline of the steps: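 Germinated wheat seedlings (5 per well, on agar) sprayed with compound in acetone/DMF with emulsifier-containing water, then infested with 10–20 Diabrotica balteata larvae. Efficacy (%) scored after 7 days from seedling growth: 100% = growth as untreated uninfested control, 0% = no seedlings grown.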

Another experiment has as its system Myzus persicae. Description: Myzus persicae spray test. The note with it: foliar, 120 h, 100 g/ha, Chinese cabbage leaf disks, after 5 days. On the procedure: Myzus persicae—Spray Test
(§1) Solvent: 78.0 parts by weight acetone • 1.5 parts by weight dimethylformamide
(§2) Emulsifier: alkylarylpolyglycol ether
(§3) To produce a suitable preparation of active compound, 1 part by weight of active compound is mixed with the stated amount of solvents and is diluted with water, containing an emulsifier concentration of 1000 ppm, to the desired concentration. Further test concentrations are prepared by dilution with emulsifier containing water.
Chinese cabbage (Brassica pekinensis) leaf disks infected with all instars of the green peach aphid (Myzus persicae), are sprayed with a preparation of the active ingredient of the desired concentration.
After 5 days mortality in % is determined. 100% means all aphids have been killed and 0% means none of the aphids have been killed.

The next experiment relates to Nezara viridula. Description: Nezara viridula spray test. The note with it: 96 h, 100 g/ha, barley plants, after 4 days. As to the method: Nezara viridula—Spray Test
(§4) Solvent: 78.0 parts by weight of acetone • • 1.5 parts by weight of dimethylformamide
as §2
To produce a suitable preparation of active compound, 1 part by weight of active compound is mixed with the stated amount of solvent, and the concentrate is diluted with water, containing an emulsifier concentration of 1000 ppm, to the desired concentration. Further test concentrations are prepared by dilution with emulsifier containing water.
Barley plants (Hordeum vulgare) are sprayed with a test solution containing the desired concentration of the active ingredient and are infested with larvae of the southern green stink bug (Nezara viridula).
After 4 days, mortality in % is determined. 100% means all the stink bugs have been killed; 0% means none of the stink bugs have been killed.

Another experiment deals with Spodoptera frugiperda. Put plainly: Spodoptera frugiperda spray test. As to conditions: in Zea mays, 168 h, read-out: activity (mortality). The gist of the method:
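Compound in acetone/DMF, diluted in water with 1000 ppm alkylarylpolyglycol ether emulsifier, sprayed on maize leaf sections. Dried leaves infested with fall armyworm larvae; % mortality after 7 days (100% = all killed, 0% = none).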

The next experiment concerns Tetranychus urticae. Description: Tetranychus urticae spray test OP-resistant. The note with it: foliar, 144 h, 100 g/ha, French bean leaf disks, after 6 days. On the procedure: Tetranychus urticae—Spray Test OP-Resistant
as §1, §2, §3
French bean (Phaseolus vulgaris) leaf disks infected with all instars of the two spotted spidermite (Tetranychus urticae) are sprayed with a preparation of the active ingredient of the desired concentration.
After 6 days mortality in % is determined. 100% means all spider mites have been killed and 0% means none of the spider mites have been killed.

For a further experiment, the system named is Nilaparvata lugens. Description: Nilaparvata lugens spray test. As to conditions: 96 h, rice plants, after 4 days. As to the method: Nilaparvata lugens—Spray Test
as §4, §2, §3
Rice plants (Oryza sativa) are sprayed with a preparation of the active ingredient of the desired concentration and the plants are infested with the brown planthopper (Nilaparvata lugens).
After 4 days mortality in % is determined. 100% means all planthoppers have been killed and 0% means none of the planthoppers have been killed.

The subject of experiment [3] is Ctenocephalides felis. Put plainly: Ctenocephalides felis oral test (CTECFE). As to conditions: 48 h, 100 ppm in cattle blood, after 2 days. An outline of the steps: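 About 20 adult unfed fleas fed through parafilm on cattle blood held at 37° C and dosed with compound from a DMSO concentrate; flea chamber at room temperature. Percent mortality scored after 2 days.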

Usually mortality stands for the share of the test organisms that died. `C[C@H](Nc1nc2cc(OC(F)(F)F)c(Cl)cc2o1)c1ncnn1-c1ncc(Br)cn1` [Example I-085, N-{(1S)-1-[1-(5-Brompyrimidin-2-yl)-1H-1,2,4-triazol-5-yl]ethyl}-6-chlor-5(trifluormethoxy)-1,3-benzoxazol-2-amin]: the pest or weed control at 5 µg/cm2 in [1] was 100%. Besides, the pest or weed control at 5 µg/cm2, 5 µg/cm2 in the experiment with Ctenocephalides felis [2] and with Rhipicephalus sanguineus was 100% throughout. Also, in the experiment with Diabrotica balteata (100 g/ha), the pest or weed control at 100 g/ha is 100%. For the same compound, the mortality at 100 g/ha in the experiment with Myzus persicae was determined as 90%; in the experiment on Nezara viridula, 100%; in the experiment on Spodoptera frugiperda, 100%; in the experiment on Tetranychus urticae, 90%.

As to `C[C@H](Nc1nc2ccccc2s1)c1ncnn1-c1ncccn1` [Example I-009], in the experiment on Diabrotica balteata (500 g/ha (=160 μg/well)), the pest or weed control at 160 µg/disc, 500 g/ha was found to be 80%. The compound further came in with a mortality at 500 g/ha in the experiment on Nilaparvata lugens of 100%.

`Cc1cc2oc(N[C@@H](C)c3ncnn3-c3ncccn3)nc2cc1Br` [Example I-007]: the pest or weed control at 5 µg/cm2 in [1] was 100%. In the experiment on Ctenocephalides felis [3], this compound showed a mortality at 100 ppm of 100%. In the experiment with Nilaparvata lugens, this compound gave a mortality at 500 g/ha of 100%.

(Values after patent publication US12384769B2, “Heteroaryl-substituted aminoalkyl azole compounds as pesticides” (Elanco Animal Health GmbH, priority 2019, dated 2025).)
